Results taken from patent US6884407B1, “Methods for diagnostic imaging involving the use of a contrast agent and a coronary vasodilator” (Bristol-Myers Squibb Pharma Company, priority 1996, dated 2005).
Where two headings read alike, the source gives them in different places.

What was measured:
[1] = Calculated diameter of emulsified droplet to form a 10 μm vesicle (ideal gas law); format: physicochemical; conditions: for Diameter (μm) of emulsified droplet to make 10 micron vesicle: Table 2
Text: As noted above, compositions employed herein may also include, with respect to their preparation, formation and use, gaseous precursors that can be activated to change from a liquid or solid state into a gas by temperature, pH, light, and energy (such as ultrasound). The gaseous precursors may be made into gas by storing the precursors at reduced pressure. For example, a vial stored under reduced pressure may create a headspace of perfluoropentane or perfluorohexane gas, useful for creating a preformed gas prior to injection. Preferably, the gaseous precursors may be activated by temperature. Set forth below is a table listing a series of gaseous precursors which undergo phase transitions from liquid to gaseous states at relatively close to normal body temperature (37° C.) or below, and the size of the emulsified droplets that would be required to form a vesicle of a maximum size of 10 μm.
The ideal gas law, which can be used for calculating the increase in the volume of the gas bubbles upon transitioning from liquid to gaseous states, is as follows: PV=nRT where
Thus, for stabilization of the precursor in the liquid state in a mixture wherein the precursor droplet is spherical, the volume of the precursor droplet may be determined by the equation: Volume (spherical vesicle)=4/3 πr^3 where
(B) where D is the density of the precursor. Solving for the diameter of the liquid droplet, diameter/2=[3/4π[4/3·[πrgas^3]P/RT]MWn/D]^1/3 (C) which reduces to Diameter=2[[rgas^3]P/RT[MWn/D]]^1/3.

[2] = cited from earlier work
[3] = cited from earlier work; for Boiling Point: Table 2, CRC Handbook
[4] = saturated diacyl-sn-glycero-3-phosphocholines, main chain melting transition; cited from earlier work
myocardium = assay: Ultrasound dose range studies of myocardium echo enhancement before and after coronary vasodilator; format: in vivo; conditions: 20 Kg pig, dipyridamole 0.56 mg/Kg IV over 4 minutes with gas filled vesicles of Example 1
Procedure: This example includes a description of methods for imaging the cardiovascular region of a patient in accordance with methods within the scope of the present invention.
A 20 Kg pig is anesthetized with isoflurane and a Swan Ganz catheter is inserted to monitor hemodynamics. Dose range studies are conducted using the gas filled vesicles prepared in Example 1 to determine the minimum dose required to enhance the myocardium echo, which is defined as greater than 10 videodensitometry units as determined by repeated videodensity measurements. After the dose range studies are performed, dipyridamole is administered intravenously at a dose of 0.56 mg/Kg over a period of 4 minutes. After a 5 minute latency period, dose range studies are repeated.

[5] = Table 2, CRC Handbook, in g/mL (unit assumed)

Compound	Diameter (μm) of emulsified droplet to make 10 micron vesicle [1] [μm]	Density [2, 5]	Boiling Point [3] [°C]	Main Phase Transition Temperature [4] [°C]	also measured
2-methyl 1-butene	2.5	0.6504	31.2	–	–
CCCCCCCCCCCC(=O)OC[C@H](COP(=O)([O-])OCC[N+](C)(C)C)OC(=O)CCCCCCCCCCC [1,2-(12:0)]	–	–	–	−1.0	–
CCCCCCCCCCCCC(=O)OC[C@H](COP(=O)([O-])OCC[N+](C)(C)C)OC(=O)CCCCCCCCCCCC [1,2-(13:0)]	–	–	–	13.7	–
CCCCCCCCCCCCCC(=O)OC[C@H](COP(=O)([O-])OCC[N+](C)(C)C)OC(=O)CCCCCCCCCCCCC [1,2-(14:0)]	–	–	–	23.5	–
CCCCCCCCCCCCCCC(=O)OC[C@H](COP(=O)([O-])OCC[N+](C)(C)C)OC(=O)CCCCCCCCCCCCCC [1,2-(15:0)]	–	–	–	34.5	–
CCCCCCCCCCCCCCCC(=O)OC[C@H](COP(=O)([O-])OCC[N+](C)(C)C)OC(=O)CCCCCCCCCCCCCCC [1,2-(16:0)]	–	–	–	41.4	–
CCCCCCCCCCCCCCCCC(=O)OC[C@H](COP(=O)([O-])OCC[N+](C)(C)C)OC(=O)CCCCCCCCCCCCCCCC [1,2-(17:0)]	–	–	–	48.2	–
CCCCCCCCCCCCCCCCCC(=O)OC[C@H](COP(=O)([O-])OCC[N+](C)(C)C)OC(=O)CCCCCCCCCCCCCCCCC [1,2-(18:0)]	–	–	–	55.1	–
CCCCCCCCCCCCCCCCCCC(=O)OC[C@H](COP(=O)([O-])OCC[N+](C)(C)C)OC(=O)CCCCCCCCCCCCCCCCCC [1,2-(19:0)]	–	–	–	61.8	–
CCCCCCCCCCCCCCCCCCCC(=O)OC[C@H](COP(=O)([O-])OCC[N+](C)(C)C)OC(=O)CCCCCCCCCCCCCCCCCCC [1,2-(20:0)]	–	–	–	64.5	–
CCCCCCCCCCCCCCCCCCCCC(=O)OC[C@H](COP(=O)([O-])OCC[N+](C)(C)C)OC(=O)CCCCCCCCCCCCCCCCCCCC [1,2-(21:0)]	–	–	–	71.1	–
CCCCCCCCCCCCCCCCCCCCCC(=O)OC[C@H](COP(=O)([O-])OCC[N+](C)(C)C)OC(=O)CCCCCCCCCCCCCCCCCCCCC [1,2-(22:0)]	–	–	–	74.0	–
CCCCCCCCCCCCCCCCCCCCCCC(=O)OCC(COP(=O)([O-])OCC[N+](C)(C)C)OC(=O)CCCCCCCCCCCCCCCCCCCCCC (stereo not shown) [1,2-(23:0)]	–	–	–	79.5	–
CCCCCCCCCCCCCCCCCCCCCCCC(=O)OCC(COP(=O)([O-])OCC[N+](C)(C)C)OC(=O)CCCCCCCCCCCCCCCCCCCCCCC (stereo not shown) [1,2-(24:0)]	–	–	–	80.1	–
C#CC(=C)C [1-butene-3-yne-2-methyl]	2.4	0.6801	34.0	–	–
CCCCF [1-fluorobutane]	1.2	0.6779	32.5	–	diameter of emulsion droplets to make a gaseous precursor filled vesicle with an upper limit of 10 μm ([1]; equation (C), 37° C., 1 atmosphere): 0.0544 μm; Density ([2]; at 20° C.): 0.7789 g/mL; liquid/gas phase transition temperature (boiling point) [3]: 32.5 °C
CCC(C)C [2-methyl butane (isopentane), 2-methyl butane]	2.6	0.6201	–	–	–
CC=C(C)C [2-methyl-2-butene]	2.5	0.6623	38.6	–	–
C#CC(C)C [3-methyl-1-butyne]	2.5	0.6660	29.5	–	–
FC(F)(F)C(F)(F)C(F)(F)C(F)(F)F [decafluoro butane, perfluorobutane]	3.0	1.517	−2	–	liquid/gas phase transition temperature (boiling point) [3]: 4 °C
OCCN(CCO)c1nc(N2CCCCC2)c2nc(N(CCO)CCO)nc(N3CCCCC3)c2n1 [dipyridamole]	–	–	–	–	diagnostic artifacts (myocardium): substantially eliminated; dosage of contrast agent required to obtain a medically useful diagnostic image of the cardiovascular region (myocardium; after vs before dipyridamole): significantly smaller dosage
FC(F)(F)C(F)(F)F [hexafluoro ethane]	2.7	1.607	–	–	–
FC1(F)C(F)(F)C(F)(F)C1(F)F [octafluoro cyclobutane, octafluorocyclobutane]	2.8	1.48	−5.8	–	–
FC(F)(F)C(F)(F)C(F)(F)C(F)(F)C(F)(F)F [perfluoro pentane, perfluoropentane]	2.9	1.7326	29.5	–	liquid/gas phase transition temperature (boiling point) [3]: 29.5 °C
FC(F)(F)C(F)(F)C(F)(F)C(F)(F)C(F)(F)C(F)(F)F [perfluorohexane]	–	–	–	–	liquid/gas phase transition temperature (boiling point) [3]: 57 °C
